Test results as given in ChEMBL document CHEMBL3885881, “DrugMatrix”.

Species: Rattus norvegicus
Experiment: DrugMatrix - Regimen: Daily Repeat
Format: toxicity, organism-based, Sprague-Dawley
Parameters: regimen Daily Repeat, gender Male, age 6-8 weeks
Settings: in vivo, po, 1000 mg/kg, route oral GAVAGE, dose level High, vehicle 100 % WATER; for ABSOLUTE BASOPHIL / ABSOLUTE EOSINOPHIL / ABSOLUTE LYMPHOCYTE / ABSOLUTE MONOCYTE / ABSOLUTE SEGMENTED NEUTROPHIL / BASOPHIL / EOSINOPHIL / ERYTHROCYTE COUNT / HEMATOCRIT / HEMOGLOBIN / LEUKOCYTE COUNT / LYMPHOCYTE / MEAN CORPUSCULAR HEMOGLOBIN / MEAN CORPUSCULAR HEMOGLOBIN CONCENTRATION / MEAN CORPUSCULAR VOLUME / MONOCYTE / NEUTROPHIL / NUCLEATED RED BLOOD CELLS / PLATELET COUNT: tissue Blood; for ALANINE AMINOTRANSFERASE / ALBUMIN / ALKALINE PHOSPHATASE / ASPARTATE AMINOTRANSFERASE / BLOOD UREA NITROGEN / CARBON DIOXIDE / CHLORIDE / CHOLESTEROL / CREATINE PHOSPHOKINASE / CREATININE / GLUCOSE / LACTATE DEHYDROGENASE / LIPASE / PHOSPHORUS / POTASSIUM / SODIUM / TOTAL BILIRUBIN / TOTAL PROTEIN / URIC ACID: tissue Plasma

CCCCc1nc(Cl)c(CO)n1Cc1ccc(-c2ccccc2-c2nn[nH]n2)cc1 [LOSARTAN]
ABSOLUTE BASOPHIL (72 h, time 3 day): 0 CELLS/uL | ABSOLUTE EOSINOPHIL (72 h, time 3 day): 0 CELLS/uL | ABSOLUTE LYMPHOCYTE (72 h, time 3 day): 16308 CELLS/uL | ABSOLUTE MONOCYTE (72 h, time 3 day): 476 CELLS/uL | ABSOLUTE SEGMENTED NEUTROPHIL (72 h, time 3 day): 949.33 CELLS/uL | BASOPHIL (72 h, time 3 day): 0% | EOSINOPHIL (72 h, time 3 day): 0% | ERYTHROCYTE COUNT (72 h, time 3 day): 5.24 x10E6/uL | HEMATOCRIT (72 h, time 3 day): 33.6% | HEMOGLOBIN (72 h, time 3 day): 12.73 G/DL | LEUKOCYTE COUNT (72 h, time 3 day): 17.73 x10E3/uL | LYMPHOCYTE (72 h, time 3 day): 92.33% | MEAN CORPUSCULAR HEMOGLOBIN (72 h, time 3 day): 24.3 pg | MEAN CORPUSCULAR HEMOGLOBIN CONCENTRATION (72 h, time 3 day): 37.9 G/DL | MEAN CORPUSCULAR VOLUME (72 h, time 3 day): 64.13 fL | MONOCYTE (72 h, time 3 day): 2.67% | NEUTROPHIL (72 h, time 3 day): 5% | NUCLEATED RED BLOOD CELLS (72 h, time 3 day): 0 /100WBC | PLATELET COUNT (72 h, time 3 day): 1384.67 x10E3/uL | ALANINE AMINOTRANSFERASE (72 h, time 3 day): 41.67 u/L | ALBUMIN (72 h, time 3 day): 4.4 G/DL | ALKALINE PHOSPHATASE (72 h, time 3 day): 365.67 u/L | ASPARTATE AMINOTRANSFERASE (72 h, time 3 day): 77.33 u/L | BLOOD UREA NITROGEN (72 h, time 3 day): 39.33 mg/dL | CARBON DIOXIDE (72 h, time 3 day): 21.67 mmol/L | CHLORIDE (72 h, time 3 day): 106.33 MEQ/L | CHOLESTEROL (72 h, time 3 day): 96 mg/dL | CREATINE PHOSPHOKINASE (72 h, time 3 day): 290.67 u/L | CREATININE (72 h, time 3 day): 0.26 mg/dL | GLUCOSE (72 h, time 3 day): 165.33 mg/dL | LACTATE DEHYDROGENASE (72 h, time 3 day): 296 u/L | LIPASE (72 h, time 3 day): 10 u/L | PHOSPHORUS (72 h, time 3 day): 12.6 mg/dL | POTASSIUM (72 h, time 3 day): 6.89 MEQ/L | SODIUM (72 h, time 3 day): 144.3 MEQ/L | TOTAL BILIRUBIN (72 h, time 3 day): 0.2 mg/dL | TOTAL PROTEIN (72 h, time 3 day): 5.93 G/DL | URIC ACID (72 h, time 3 day): 1.73 mg/dL | ABSOLUTE BASOPHIL (120 h, time 5 day): 0 CELLS/uL | ABSOLUTE EOSINOPHIL (120 h, time 5 day): 186 CELLS/uL | ABSOLUTE LYMPHOCYTE (120 h, time 5 day): 17950.67 CELLS/uL | ABSOLUTE MONOCYTE (120 h, time 5 day): 194 CELLS/uL | ABSOLUTE SEGMENTED NEUTROPHIL (120 h, time 5 day): 1069.33 CELLS/uL | BASOPHIL (120 h, time 5 day): 0% | EOSINOPHIL (120 h, time 5 day): 1% | ERYTHROCYTE COUNT (120 h, time 5 day): 5.34 x10E6/uL | HEMATOCRIT (120 h, time 5 day): 32.67% | HEMOGLOBIN (120 h, time 5 day): 12.67 G/DL | LEUKOCYTE COUNT (120 h, time 5 day): 19.4 x10E3/uL | LYMPHOCYTE (120 h, time 5 day): 92.67% | MEAN CORPUSCULAR HEMOGLOBIN (120 h, time 5 day): 23.73 pg | MEAN CORPUSCULAR HEMOGLOBIN CONCENTRATION (120 h, time 5 day): 38.77 G/DL | MEAN CORPUSCULAR VOLUME (120 h, time 5 day): 61.27 fL | MONOCYTE (120 h, time 5 day): 1% | NEUTROPHIL (120 h, time 5 day): 5.33% | NUCLEATED RED BLOOD CELLS (120 h, time 5 day): 0 /100WBC | PLATELET COUNT (120 h, time 5 day): 1450.33 x10E3/uL | ALANINE AMINOTRANSFERASE (120 h, time 5 day): 48.67 u/L | ALBUMIN (120 h, time 5 day): 4.4 G/DL | ALKALINE PHOSPHATASE (120 h, time 5 day): 418.33 u/L | ASPARTATE AMINOTRANSFERASE (120 h, time 5 day): 72 u/L | BLOOD UREA NITROGEN (120 h, time 5 day): 59.67 mg/dL | CARBON DIOXIDE (120 h, time 5 day): 24.33 mmol/L | CHLORIDE (120 h, time 5 day): 110.67 MEQ/L | CHOLESTEROL (120 h, time 5 day): 80.67 mg/dL | CREATINE PHOSPHOKINASE (120 h, time 5 day): 480.33 u/L | CREATININE (120 h, time 5 day): 0.37 mg/dL | GLUCOSE (120 h, time 5 day): 175.33 mg/dL | LACTATE DEHYDROGENASE (120 h, time 5 day): 59.33 u/L | LIPASE (120 h, time 5 day): 9 u/L | PHOSPHORUS (120 h, time 5 day): 11.37 mg/dL | POTASSIUM (120 h, time 5 day): 7.02 MEQ/L | SODIUM (120 h, time 5 day): 146.03 MEQ/L | TOTAL BILIRUBIN (120 h, time 5 day): 0.13 mg/dL | TOTAL PROTEIN (120 h, time 5 day): 5.9 G/DL | URIC ACID (120 h, time 5 day): 1.83 mg/dL
